Assays:
[1] = biological target: Human plasma kallikrein (Homo sapiens (Human), UniProt P03952); test: Determination of the IC50 for plasma kallikrein (fluorogenic substrate H-DPro-Phe-Arg-AFC); format: biochemical; details: 37° C., read-out: IC50 (human PKal)
Experimental: Determination of the IC50 Plasma Kallikrein Plasma kallikrein inhibitory activity in vitro was determined using standard published methods (see e.g. Johansen et al., Int. J. Tiss. […] Shori et al., Biochem. Pharmacol., 1992, 43, 1209; Stürzebecher et al., Biol. Chem. Hoppe-Seyler, 1992, 373, 1025). Human plasma kallikrein (Protogen) was incubated at 37° C. with the fluorogenic substrate […] and various concentrations of the test compound.

[2] = biological target: Human KLK1 (Homo sapiens (Human), UniProt P06870); test: Determination of the IC50 for KLK1 (fluorogenic substrate H-DVal-Leu-Arg-AFC); format: biochemical; details: human KLK1, 37° C.
In short: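 Inhibition of human KLK1 (Callbiochem) was measured in vitro following standard published methods. The enzyme was incubated at 37° C. with the fluorogenic substrate H-DVal-Leu-Arg-AFC across a range of test compound concentrations. Residual activity, taken as the initial reaction rate, was followed by […], and IC50 values were calculated.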

Chain of Human plasma kallikrein (P03952 391-638 limits assumed): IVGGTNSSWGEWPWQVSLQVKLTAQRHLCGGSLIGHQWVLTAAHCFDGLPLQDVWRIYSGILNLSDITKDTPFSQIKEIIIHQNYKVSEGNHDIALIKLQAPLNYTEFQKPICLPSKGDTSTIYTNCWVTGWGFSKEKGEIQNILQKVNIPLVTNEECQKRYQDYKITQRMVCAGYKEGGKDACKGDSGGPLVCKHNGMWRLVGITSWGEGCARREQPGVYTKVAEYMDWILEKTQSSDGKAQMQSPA
Chain of Human plasma kallikrein (P03952 20-390 partner limits assumed): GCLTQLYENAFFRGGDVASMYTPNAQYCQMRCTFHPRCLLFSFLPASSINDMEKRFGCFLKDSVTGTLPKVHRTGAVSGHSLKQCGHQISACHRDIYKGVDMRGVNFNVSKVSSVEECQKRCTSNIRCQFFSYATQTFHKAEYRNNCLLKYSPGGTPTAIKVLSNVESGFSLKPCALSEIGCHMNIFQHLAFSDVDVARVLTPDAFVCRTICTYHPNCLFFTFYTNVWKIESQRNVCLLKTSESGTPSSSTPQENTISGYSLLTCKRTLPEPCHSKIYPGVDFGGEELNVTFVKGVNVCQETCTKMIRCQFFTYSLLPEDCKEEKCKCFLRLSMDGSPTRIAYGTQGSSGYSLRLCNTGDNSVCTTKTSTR
Chain of Human KLK1 (P06870 25-262): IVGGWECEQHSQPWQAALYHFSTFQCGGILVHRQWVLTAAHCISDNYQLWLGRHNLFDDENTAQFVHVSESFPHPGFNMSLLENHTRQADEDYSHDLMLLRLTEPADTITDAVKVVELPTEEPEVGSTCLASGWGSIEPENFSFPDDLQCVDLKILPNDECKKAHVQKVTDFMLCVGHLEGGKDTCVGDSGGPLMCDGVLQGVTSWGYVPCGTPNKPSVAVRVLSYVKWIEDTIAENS

| Structure (SMILES) | IC50 [1] [µM] | IC50 [2] [µM] |
| --- | --- | --- |
| Nc1nccc2cc(CNC(=O)c3cncc(Cc4ccccc4)c3)ccc12 [Example 23, N-[(1-Aminoisoquinolin-6-yl)methyl]-5-benzylpyridine-3-carboxamide] | 40 | 32.7 |
| COc1ncc(C(=O)NCc2ccc3c(N)nccc3c2)cc1Cc1ccc2nc(C)ccc2c1 [Example 18, N-[(1-Aminoisoquinolin-6-yl)methyl]-6-methoxy-5-[(2-methylquinolin-6-yl)methyl]pyridine-3-carboxamide] | 0.702 | 1.74 |
| Nc1nccc2cc(CNC(=O)c3cncc(Cc4ccnc(N5CCCC5CO)c4)c3)ccc12 (centres unmarked) [Example 89, N-[(1-Aminoisoquinolin-6-yl)methyl]-5-({2-[2-(hydroxymethyl)pyrrolidin-1-yl]pyridin-4-yl}methyl)pyridine-3-carboxamide] | 0.104 | 4.84 |
| CC1CCCN1c1ccc(Cc2cncc(C(=O)NCc3ccc4c(N)nccc4c3)c2)cn1 (centres unmarked) [Example 58, N-[(1-Aminoisoquinolin-6-yl)methyl]-5-{[6-(2-methylpyrrolidin-1-yl)pyridin-3-yl]methyl}pyridine-3-carboxamide] | 0.153 | 6.52 |

Source: patent US10221161B2, “Inhibitors of plasma kallikrein” (Kalvista Pharmaceuticals Limited, priority 2013, dated 2019)
